From US20220073495A1 (priority 2020, published 2022)
pIC50: −log10 of the molar value. Like-named read-outs stand apart in the source and are kept apart here.

How the values were obtained:
A/WSN/33 = assay: microbe, parasite or virus in culture; assay type: cell-based, influenza virus
A549 cells [1] = settings: human
in vitro = settings: human
viral M mRNA [2] = assay: High-throughput smRNA-FISH screen for viral M mRNA processing and nuclear export; assay type: cell-based, influenza A/WSN/33 virus; settings: 2.5 μM, A/WSN/33
viral M mRNA [3] = assay: smRNA-FISH of M mRNA in WSN-infected cells; assay type: cell-based, influenza virus (WSN); settings: 2.5 μM, WSN MOI 2 for 8 h
A549 cells [4] = assay: MTT cytotoxicity assay; settings: 48 h, MTT, concentrations used for compound 2
[5] = unidentified influenza virus, WSN, A549, 24 h, read-out: WSN IC50, A549 cells, A/WSN/33 MOI 0.01, 24 h post infection, NP-positive cells
[6] = unidentified influenza virus, WSN, A549, 24 h, read-out: WSN IC90, A549 cells, A/WSN/33 MOI 0.01, 24 h post infection, NP-positive cells
[7] = read-out: WSN IC50, A549 cells, A/WSN/33 MOI 0.01, 24 h post infection, NP-positive cells
[8] = read-out: WSN IC90, A549 cells, A/WSN/33 MOI 0.01, 24 h post infection, NP-positive cells

Compound | pIC50 (A/WSN/33; [5]) | IC90 (A/WSN/33; [6]) | 24 h MTT CC10 (A549 cells [1]) | CC50 (in vitro) | other results
Cc1ccc(NC(=O)CCC2=Nc3ccccc3C2)nc1 [Compound 16] | 4.51 | > 50 µM | 7.382 µM | – | CC50 (A549 cells [1]): > 50 µM
Brc1ccc(CSc2nc3ccccc3[nH]2)cc1 [Compound 17] | < 4.30 | > 50 µM | 19.818 µM | > 50 µM | –
CCn1c(SCC(=O)Nc2ccc(Br)cn2)nc2ccccc21 [Compound 18] | 4.42 | > 50 µM | 47.499 µM | > 50 µM | –
C=CCn1c(SCC(=O)Nc2ccc(Br)cn2)nc2ccccc21 [Compound 19] | < 4.30 | > 50 µM | 18.984 µM | > 50 µM | –
Cc1ccc(NC(=O)CSc2nc3ccccc3[nH]2)nc1 [Compound 20] | – | – | 7.855 µM | > 50 µM | pIC50 (A/WSN/33; [7]): < 4.30; IC90 (A/WSN/33; [8]): > 50 µM
COc1ccc(NC(=O)CSc2nc3ccccc3[nH]2)nc1 [Compound 21] | 4.76 | 45.4 µM | 4.69 µM | > 50 µM | –
O=C(CSc1nc2ccccc2[nH]1)Nc1ccc(F)cn1 [Compound 22] | 4.36 | > 50 µM | 31.688 µM | > 50 µM | –
Brc1ccc(CSc2nc3ccccc3[nH]2)nc1 [Compound 23] | < 4.30 | > 50 µM | 37.461 µM | > 50 µM | –
Cc1ccc(NC(=O)CSc2nc3ccccc3[nH]2)nc1 [Compound 24] | – | – | 5.552 µM | – | pIC50 (A/WSN/33; [7]): 5.06; IC90 (A/WSN/33; [8]): 24.5 µM; CC50 (A549 cells [1]): > 50 µM
Cc1ccc2[nH]c(SCC(=O)Nc3ccc(Br)cn3)nc2c1 [Compound 26] | 4.59 | > 50 µM | 6.797 µM | – | CC50 (A549 cells [1]): 49.7 µM
O=C(CSc1nc2cc(F)ccc2[nH]1)Nc1ccc(Br)cn1 [Compound 27] | 4.79 | 18.2 µM | 2.905 µM | > 50 µM | –
COc1ccc2[nH]c(SCC(=O)Nc3ccc(Br)cn3)nc2c1 [Compound 28] | 4.33 | 50 µM | 7.52 µM | > 50 µM | –
OC[C@H]1O[C@@H](n2cnc3cc(Cl)c(Cl)cc32)[C@H](O)[C@@H]1O [DRB, 5,6-dichloro-1-β-D-ribofuranosylbenzimidazole] | – | – | – | – | viral M mRNA nuclear retention (viral M mRNA [2]): positive control for viral M mRNA nuclear retention
COc1ccc(-n2c(SC(C)C(=O)Nc3ccc(C)cc3Cl)nc3ccccc32)cc1 (stereo not shown) [JMN3-003, reference compound] | – | – | – | – | nuclear export of viral M mRNA (viral M mRNA [3]): does not inhibit; total M mRNA fluorescence intensity (viral M mRNA [3]): decreased
ivermectin [reference compound] | – | – | – | – | cytotoxicity (cell viability) (A549 cells [4]): positive control for cytotoxicity
